Data from US4593018A, “Oligopeptide aldehydes useful as specific inhibitors of enterokinase” (National Research Development Corp., priority 1983, dated 1986).
Residues, ends and D or L forms follow the SMILES beside them. No end group written: not given here. *: point of attachment. Boc = CC(C)(C)OC(=O)*

What was measured:
Type in all cases: biochemical
Human Enterokinase [1] = target: T1, Human Enterokinase (Homo sapiens, UniProt P98073); experiment: Inhibition of human enterokinase, Gly-(Asp)4-Lys-2-Nap as substrate; conditions: substrate Gly-(Asp)4-Lys-2-Nap; linear regression of 1/v against [I] at three substrate concentrations
Protocol: (§1) Biological testing was carried out on the polyaspartyl argininal materials prepared as described above without further purification. […] Inhibition constants Ki for human and pig enterokinase were calculated using α-N-[^3 H] acetyl trypsinogen and Gly-(Asp)4 -Lys-2-Nap as substrates using linear regression analysis of l/v against [I] at three substrate concentrations. Inhibition of trypsin catalysed hydrolysis of both these substrates and Bz-Arg-OEt was expressed as the IC50, the concentration of inhibitor required to reduce trypsin activity by 50%. The results to activation peptides, four peptides of the invention, leupeptin and p-aminobenzamidine are set out in Tables 1 to 3 below.

Pig Enterokinase = Pig Enterokinase (Sus scrofa, UniProt P98074); experiment: Inhibition of pig enterokinase, α-N-[3H]acetyl trypsinogen as substrate; conditions: substrate α-N-[3H]acetyltrypsinogen
Protocol: as §1

Human Enterokinase [2] = target: T1, Human Enterokinase; experiment: Inhibition of human enterokinase, α-N-[3H]acetyl trypsinogen as substrate; conditions: substrate α-N-[3H]acetyltrypsinogen
Protocol: as §1

Chain of Pig Enterokinase (P98074 52-1034): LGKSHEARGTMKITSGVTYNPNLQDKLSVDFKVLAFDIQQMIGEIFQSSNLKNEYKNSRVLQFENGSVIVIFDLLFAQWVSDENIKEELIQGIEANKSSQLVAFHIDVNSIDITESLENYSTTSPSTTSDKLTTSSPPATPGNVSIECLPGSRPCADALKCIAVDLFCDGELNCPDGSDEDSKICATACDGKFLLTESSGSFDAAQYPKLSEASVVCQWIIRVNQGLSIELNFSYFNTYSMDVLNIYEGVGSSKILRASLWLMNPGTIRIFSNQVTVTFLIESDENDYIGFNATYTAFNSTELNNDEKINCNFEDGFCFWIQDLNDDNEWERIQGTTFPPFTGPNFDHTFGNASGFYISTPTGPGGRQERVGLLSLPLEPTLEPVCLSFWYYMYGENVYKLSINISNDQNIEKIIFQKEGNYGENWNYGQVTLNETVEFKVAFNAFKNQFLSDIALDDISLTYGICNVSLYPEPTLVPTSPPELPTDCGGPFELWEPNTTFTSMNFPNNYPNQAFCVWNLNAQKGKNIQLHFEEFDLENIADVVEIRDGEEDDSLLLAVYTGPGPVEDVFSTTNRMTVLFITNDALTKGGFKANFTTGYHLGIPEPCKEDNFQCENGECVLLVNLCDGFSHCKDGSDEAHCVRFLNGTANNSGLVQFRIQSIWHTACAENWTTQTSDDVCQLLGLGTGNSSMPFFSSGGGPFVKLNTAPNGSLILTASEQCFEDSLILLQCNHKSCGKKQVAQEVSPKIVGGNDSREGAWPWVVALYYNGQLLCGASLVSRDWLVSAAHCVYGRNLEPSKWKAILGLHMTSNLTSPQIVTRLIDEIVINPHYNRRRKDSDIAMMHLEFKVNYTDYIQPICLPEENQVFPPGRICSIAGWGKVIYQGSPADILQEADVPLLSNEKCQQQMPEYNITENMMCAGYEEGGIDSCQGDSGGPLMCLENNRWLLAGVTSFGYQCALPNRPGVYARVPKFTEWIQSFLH
T1 sequence (P98073 whole entry): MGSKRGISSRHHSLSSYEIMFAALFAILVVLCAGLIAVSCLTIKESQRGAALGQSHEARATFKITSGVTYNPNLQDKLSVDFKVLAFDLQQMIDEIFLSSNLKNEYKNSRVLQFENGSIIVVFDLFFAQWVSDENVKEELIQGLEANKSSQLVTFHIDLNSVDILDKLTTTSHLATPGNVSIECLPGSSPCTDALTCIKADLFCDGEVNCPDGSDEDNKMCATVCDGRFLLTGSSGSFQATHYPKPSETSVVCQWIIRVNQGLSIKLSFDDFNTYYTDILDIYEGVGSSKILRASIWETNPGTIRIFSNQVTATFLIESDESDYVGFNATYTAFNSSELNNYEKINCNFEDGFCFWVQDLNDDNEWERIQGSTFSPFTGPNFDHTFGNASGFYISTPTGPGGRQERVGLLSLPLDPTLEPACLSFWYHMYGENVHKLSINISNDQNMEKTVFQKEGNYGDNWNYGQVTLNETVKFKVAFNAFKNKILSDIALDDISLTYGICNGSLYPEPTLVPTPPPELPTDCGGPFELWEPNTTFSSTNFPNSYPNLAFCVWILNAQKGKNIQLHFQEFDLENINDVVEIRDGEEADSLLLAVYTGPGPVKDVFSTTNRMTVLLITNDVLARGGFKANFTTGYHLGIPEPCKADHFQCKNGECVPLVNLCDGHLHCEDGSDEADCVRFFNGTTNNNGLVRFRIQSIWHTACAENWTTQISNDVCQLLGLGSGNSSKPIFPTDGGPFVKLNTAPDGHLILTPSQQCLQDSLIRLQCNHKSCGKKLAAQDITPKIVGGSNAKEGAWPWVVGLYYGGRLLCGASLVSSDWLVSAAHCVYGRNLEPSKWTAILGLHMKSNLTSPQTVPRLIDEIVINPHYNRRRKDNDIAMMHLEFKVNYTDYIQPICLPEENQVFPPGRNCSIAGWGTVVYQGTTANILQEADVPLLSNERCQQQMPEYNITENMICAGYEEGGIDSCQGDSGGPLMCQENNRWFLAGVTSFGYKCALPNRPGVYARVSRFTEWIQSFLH

Row | Compound | Ki (Human Enterokinase [1]) [nM] | Ki (Pig Enterokinase) [nM] | Ki (Human Enterokinase [2]) [nM]
1 | CC(C)(C)OC(=O)N[C@@H](CC(=O)O)C(=O)N[C@@H](CC(=O)O)C(=O)N[C@H](C=O)CCCNC(=N)N [Boc(Asp)2 Argal, Boc--(Asp)2 --Argininal] (Boc-Asp-Asp-Arg-aldehyde) | 200 ± 50 | 50 ± 10 | 10 ± 5
2 | CC(C)(C)OC(=O)N[C@@H](CC(=O)O)C(=O)N[C@@H](CC(=O)O)C(=O)N[C@@H](CC(=O)O)C(=O)N[C@H](C=O)CCCNC(=N)N [Boc(Asp)3 Argal, Boc--(Asp)3 --Argininal] (Boc-DDDR-aldehyde) | 100 | 35 ± 5 | 20 ± 5
3 | CC(C)(C)OC(=O)N[C@@H](CC(=O)O)C(=O)N[C@@H](CC(=O)O)C(=O)N[C@@H](CC(=O)O)C(=O)N[C@@H](CC(=O)O)C(=O)N[C@H](C=O)CCCNC(=N)N [Boc(Asp)4 Argal, Boc--(Asp)4 --Argininal] (Boc-DDDDR-aldehyde) | 55 ± 5 | 20 ± 10 | 10 ± 5
4 | CC(=O)N[C@@H](CC(C)C)C(=O)N[C@@H](CC(C)C)C(=O)N[C@H](C=O)CCCNC(=N)N [Leupeptin, reference compound] | 1000 | ≥ 1000 | –
5 | N=C(N)c1ccc(N)cc1 [p-aminobenzamidine, reference compound] | – | ≥ 50000 | ≥ 50000
6 | APFDDDDK [Ala--Pro--Phe--(Asp)4 Lys, reference compound] | 750000 | – | –
7 | DDDDK [(Asp)4 Lys, reference compound] | 100000 | – | –
